Source: patent US12150971B2, “Method and composition for preventing and treating Covid-19 and long Covid” (priority 2021, dated 2024)

Tested on: xCT
Test: Western blot of xCT in THP-1-derived macrophages
Format: cell-based, human
Conditions: 5 mM NAC 1 h pretreatment, then 100 μg/ml Virofree 6 or 24 h
Protocol: The cells were exposed to different treatments for the indicated time, the cells were lysed on ice with lysis buffer. The cell lysate was cleared by centrifugation at 12,000 g for 10 min. The lysate was resolved by sodium dodecyl sulfate-polyacrylamide gel electrophoresis, and the proteins were transferred to a polyvinylidene fluoride membrane. After blocking with 5% non-fat dry milk in Tris-buffered saline, the membrane was incubated overnight with the desired primary antibody (FPN (Novus Biologicals, NBP1-21502, 1:1000), FTH-1 (Cell signaling, 4393S, 1:1000), GPX4 (Abcam, ab125066, 1:1000), TFRC (Cell signaling, 13208s, 1:1000), xCT (Cell signaling, 17681s, 1:1000), GAPDH (GeneTex, GTX100118, 1:10,000), α-SMA (Abcam, ab5694, 1:1000), Fibronectin (Santa Cruz, sc-9068, 1:1000), N-cadherin (BD, 610920, 1:1000), β-actin (GeneTex, GTX109639, 1:10000)). Subsequently, the membrane was incubated with an appropriate secondary antibody. Immunoreactive bands were visualized using the enhanced chemiluminescence (ECL) method and captured by a Luminescence Imaging system (LAS 4000™, Fuji Photo Film Co. Ltd).

With `CC(=O)N[C@@H](CS)C(=O)O` [N-acetyl cysteine] as the compound, how does the “xCT expression mediated by Virofree after NAC pretreatment” value read?
Its value is “significantly decrease”.
